Data as given in patent US7138361B2, “Herbicidal heterocycles” (E. I. du Pont de Nemours and Company, priority 2000, dated 2006).

Tests used:
Type in all cases: in vivo
[1] = test system: pigweed (Amaranthus retroflexus); assay: Test B preemergence
In short: (§1)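 Seeds were planted and sprayed preemergence with test chemical in a non-phytotoxic solvent mixture containing surfactant; postemergence plants (2 to 18 cm, 1- to 4-leaf stage) received the same formulation. Greenhouse hold 13 to 15 days, then visual rating versus untreated controls on a 0–100 scale (0 no effect, 100 complete control).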

[2] = test system: cocklebur (Xanthium strumarium); assay: Test B preemergence
In short: as §1

[3] = test system: barnyardgrass (Echinochloa crus-galli); assay: Test B preemergence
In short: as §1

[4] = test system: velvetleaf (Abutilon theophrasti); assay: Test B preemergence
In short: as §1

rice (Oryza saliva) [5] = assay: Test B preemergence
In short: as §1

[6] = test system: giant foxtail (Setaria faberii); assay: Test B preemergence
In short: as §1

[7] = test system: Surinam grass (Brachiaria decumbens); assay: Test B preemergence
In short: as §1

[8] = test system: morning glory (Ipomoea hederacea); assay: Test B preemergence
In short: as §1

[9] = test system: lambsquarters (Chenopodium album); assay: Test B preemergence
In short: as §1

[10] = test system: crabgrass (Digitaria sanguinalis); assay: Test B preemergence
In short: as §1

corn (Zea mays) [11] = assay: Test B preemergence
In short: as §1

rice (Oryza saliva) [12] = assay: Test C flooded paddy test; settings: for Rice plant response rating: scale 0 to 100, 0 no effect, 100 complete control
In short: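 Greenhouse-maintained for 12 to 14 days after treatment, the paddy plants (2-leaf stage at application) were scored visually against controls. A score of 0 denotes no effect and a score of 100 denotes complete control.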

[13] = test system: pigweed (Amaranthus retroflexus); assay: Test B postemergence; settings: 13 to 15 days
In short: as §1

[14] = test system: wheat (Triticum aestivum); assay: Test B postemergence; settings: 13 to 15 days
In short: as §1

[15] = test system: cocklebur (Xanthium strumarium); assay: Test B postemergence; settings: 13 to 15 days
In short: as §1

[16] = test system: barnyardgrass (Echinochloa crus-galli); assay: Test B postemergence; settings: 13 to 15 days
In short: as §1

[17] = test system: velvetleaf (Abutilon theophrasti); assay: Test B postemergence; settings: 13 to 15 days
In short: as §1

[18] = test system: blackgrass (Alopecurus myosuroides); assay: Test B postemergence; settings: 13 to 15 days
In short: as §1

[19] = test system: giant foxtail (Setaria faberii); assay: Test B postemergence; settings: 13 to 15 days
In short: as §1

[20] = test system: Surinam grass (Brachiaria decumbens); assay: Test B postemergence; settings: 13 to 15 days
In short: as §1

[21] = test system: morning glory (Ipomoea hederacea); assay: Test B postemergence; settings: 13 to 15 days
In short: as §1

wild oat (Avena fatua) = assay: Test B postemergence; settings: 13 to 15 days
In short: as §1

[22] = test system: lambsquarters (Chenopodium album); assay: Test B postemergence; settings: 13 to 15 days
In short: as §1

[23] = test system: crabgrass (Digitaria sanguinalis); assay: Test B postemergence; settings: 13 to 15 days
In short: as §1

corn (Zea mays) [24] = assay: Test B postemergence; settings: 13 to 15 days
In short: as §1

[25] = Preemergence, Rate 500 g/ha, scale 0 to 100, 0 no effect, 100 complete control
[26] = preemergence, Rate 125 g/ha, scale of 0 to 100 where 0 is no effect and 100 is complete control, 13 to 15 days
[27] = flooded paddy test, Rate 62 g/ha, scale 0 to 100 (0 no effect, 100 complete control)
[28] = flooded paddy test, Rate 125 g/ha, scale 0 to 100 (0 no effect, 100 complete control)
[29] = Rate 125 g/ha, scale 0 (no effect) to 100 (complete control)
[30] = Rate 500 g/ha, scale 0 to 100, 0 is no effect, 100 is complete control
[31] = preemergence, Rate 62 g/ha, scale of 0 to 100 where 0 is no effect and 100 is complete control, 13 to 15 days
[32] = preemergence, Rate 125 g/ha, scale 0 to 100, 0 no effect, 100 complete control
[33] = preemergence, Rate 250 g/ha, scale 0 to 100, 0 no effect, 100 complete control
[34] = Rate 250 g/ha, scale 0 (no effect) to 100 (complete control)

CC1(c2ccn(C3OCN(c4cccc(OC(F)(F)F)c4)C3=O)n2)CC1 (stereo not shown) [Compound 69]
Plant response rating, Pigweed [1, 25]: 90 | Plant response rating, Pigweed [1, 26]: 60 | Plant response rating, Cocklebur [2, 25]: 20 | Plant response rating, Cocklebur [2, 26]: 0 | Plant response rating, Barnyardgrass [3, 25]: 40 | Plant response rating, Barnyardgrass [3, 26]: 20 | Plant response rating, Velvetleaf [4, 25]: 0 | Plant response rating, Velvetleaf [4, 26]: 0 | Plant response rating, Rice (rice (Oryza saliva) [5]; [25]): 0 | Plant response rating, Rice (rice (Oryza saliva) [5]; [26]): 0 | Plant response rating, Foxtail, Giant [6, 25]: 0 | Plant response rating, Foxtail, Giant [6, 26]: 0 | Plant response rating, Surinam grass [7, 25]: 20 | Plant response rating, Surinam grass [7, 26]: 20 | Plant response rating, Morningglory [8, 25]: 0 | Plant response rating, Morningglory [8, 26]: 0 | Plant response rating, Lambsquarters [9, 25]: 100 | Plant response rating, Lambsquarters [9, 26]: 90 | Plant response rating, Crabgrass [10, 25]: 0 | Plant response rating, Crabgrass [10, 26]: 0 | Plant response rating, Corn (corn (Zea mays) [11]; [25]): 0 | Plant response rating, Corn (corn (Zea mays) [11]; [26]): 0 | Rice plant response rating (rice (Oryza saliva) [12]; Flooded Paddy, Rate 250 g/ha): 40 | Rice plant response rating (rice (Oryza saliva) [12]; Flooded Paddy, Rate 500 g/ha): 80 | Plant response rating, Rice (rice (Oryza saliva) [12]; [27]): 0 | Plant response rating, Rice (rice (Oryza saliva) [12]; [28]): 20 | Plant response rating, Pigweed [13, 29]: 0 | Plant response rating, Pigweed [13, 30]: 0 | Plant response rating, Wheat [14, 29]: 0 | Plant response rating, Wheat [14, 30]: 0 | Plant response rating, Cocklebur [15, 29]: 0 | Plant response rating, Cocklebur [15, 30]: 20 | Plant response rating, Barnyardgrass [16, 29]: 0 | Plant response rating, Barnyardgrass [16, 30]: 90 | Plant response rating, Velvetleaf [17, 29]: 0 | Plant response rating, Velvetleaf [17, 30]: 0 | Plant response rating, Blackgrass [18, 29]: 70 | Plant response rating, Blackgrass [18, 30]: 70 | Plant response rating, Foxtail, Giant [19, 29]: 0 | Plant response rating, Foxtail, Giant [19, 30]: 0 | Plant response rating, Surinam grass [20, 29]: 0 | Plant response rating, Surinam grass [20, 30]: 0 | Plant response rating, Morningglory [21, 29]: 0 | Plant response rating, Morningglory [21, 30]: 0 | Plant response rating, Wild Oat (wild oat (Avena fatua); [29]): 0 | Plant response rating, Wild Oat (wild oat (Avena fatua); [30]): 0 | Plant response rating, Lambsquarters [22, 29]: 80 | Plant response rating, Lambsquarters [22, 30]: 80 | Plant response rating, Crabgrass [23, 29]: 0 | Plant response rating, Crabgrass [23, 30]: 30 | Plant response rating, Corn (corn (Zea mays) [24]; [29]): 0 | Plant response rating, Corn (corn (Zea mays) [24]; [30]): 0

CC1(C)CCc2cn(C3CCN(c4cccc(C(F)(F)F)c4)C3=O)nc21 (stereo not shown) [Compound 10]
Plant response rating, Pigweed [1, 25]: 0 | Plant response rating, Pigweed [1, 31]: 90 | Plant response rating, Pigweed [1, 32]: 0 | Plant response rating, Pigweed [1, 33]: 100 | Plant response rating, Cocklebur [2, 25]: 0 | Plant response rating, Cocklebur [2, 32]: 0 | Plant response rating, Cocklebur [2, 33]: 0 | Plant response rating, Barnyardgrass [3, 25]: 0 | Plant response rating, Barnyardgrass [3, 31]: 0 | Plant response rating, Barnyardgrass [3, 32]: 0 | Plant response rating, Barnyardgrass [3, 33]: 100 | Plant response rating, Velvetleaf [4, 25]: 0 | Plant response rating, Velvetleaf [4, 31]: 0 | Plant response rating, Velvetleaf [4, 32]: 0 | Plant response rating, Velvetleaf [4, 33]: 0 | Plant response rating, Rice (rice (Oryza saliva) [5]; [25]): 0 | Plant response rating, Rice (rice (Oryza saliva) [5]; [31]): 0 | Plant response rating, Rice (rice (Oryza saliva) [5]; [32]): 0 | Plant response rating, Rice (rice (Oryza saliva) [5]; [33]): 0 | Plant response rating, Foxtail, Giant [6, 25]: 0 | Plant response rating, Foxtail, Giant [6, 31]: 80 | Plant response rating, Foxtail, Giant [6, 32]: 0 | Plant response rating, Foxtail, Giant [6, 33]: 100 | Plant response rating, Surinam grass [7, 25]: 0 | Plant response rating, Surinam grass [7, 31]: 20 | Plant response rating, Surinam grass [7, 32]: 0 | Plant response rating, Surinam grass [7, 33]: 30 | Plant response rating, Morningglory [8, 25]: 0 | Plant response rating, Morningglory [8, 31]: 0 | Plant response rating, Morningglory [8, 32]: 0 | Plant response rating, Morningglory [8, 33]: 0 | Plant response rating, Lambsquarters [9, 25]: 0 | Plant response rating, Lambsquarters [9, 31]: 100 | Plant response rating, Lambsquarters [9, 32]: 0 | Plant response rating, Lambsquarters [9, 33]: 100 | Plant response rating, Crabgrass [10, 25]: 0 | Plant response rating, Crabgrass [10, 31]: 100 | Plant response rating, Crabgrass [10, 32]: 0 | Plant response rating, Crabgrass [10, 33]: 100 | Plant response rating, Corn (corn (Zea mays) [11]; [25]): 0 | Plant response rating, Corn (corn (Zea mays) [11]; [31]): 0 | Plant response rating, Corn (corn (Zea mays) [11]; [32]): 0 | Plant response rating, Corn (corn (Zea mays) [11]; [33]): 30 | Plant response rating, Rice (rice (Oryza saliva) [12]; Flooded Paddy, Rate 500 g/ha, scale 0 to 100): 60 | Rice plant response rating (rice (Oryza saliva) [12]; Flooded Paddy, Rate 250 g/ha): 10 | Plant response rating, Rice (rice (Oryza saliva) [12]; [27]): 0 | Plant response rating, Rice (rice (Oryza saliva) [12]; [28]): 0 | Plant response rating (scale 0 to 100), Rice (rice (Oryza saliva) [12]; flooded paddy test, Rate 16 g/ha, visually evaluated after 12 to 14 days, 0 = no effect, 100 = complete control): 0 | Plant response rating, Pigweed [13, 29]: 0 | Plant response rating, Pigweed [13, 34]: 0 | Plant response rating, Pigweed [13, 30]: 0 | Plant response rating, Wheat [14, 29]: 0 | Plant response rating, Wheat [14, 34]: 0 | Plant response rating, Wheat [14, 30]: 0 | Plant response rating, Cocklebur [15, 29]: 0 | Plant response rating, Cocklebur [15, 34]: 0 | Plant response rating, Cocklebur [15, 30]: 0 | Plant response rating, Barnyardgrass [16, 29]: 0 | Plant response rating, Barnyardgrass [16, 34]: 0 | Plant response rating, Barnyardgrass [16, 30]: 0 | Plant response rating, Velvetleaf [17, 29]: 0 | Plant response rating, Velvetleaf [17, 34]: 0 | Plant response rating, Velvetleaf [17, 30]: 0 | Plant response rating, Blackgrass [18, 29]: 0 | Plant response rating, Blackgrass [18, 34]: 0 | Plant response rating, Blackgrass [18, 30]: 0 | Plant response rating, Foxtail, Giant [19, 29]: 0 | Plant response rating, Foxtail, Giant [19, 34]: 0 | Plant response rating, Foxtail, Giant [19, 30]: 0 | Plant response rating, Surinam grass [20, 29]: 0 | Plant response rating, Surinam grass [20, 34]: 0 | Plant response rating, Surinam grass [20, 30]: 0 | Plant response rating, Morningglory [21, 29]: 0 | Plant response rating, Morningglory [21, 34]: 0 | Plant response rating, Morningglory [21, 30]: 0 | Plant response rating, Wild Oat (wild oat (Avena fatua); [29]): 0 | Plant response rating, Wild Oat (wild oat (Avena fatua); [34]): 0 | Plant response rating, Wild Oat (wild oat (Avena fatua); [30]): 0 | Plant response rating, Lambsquarters [22, 29]: 0 | Plant response rating, Lambsquarters [22, 34]: 100 | Plant response rating, Lambsquarters [22, 30]: 0 | Plant response rating, Crabgrass [23, 29]: 0 | Plant response rating, Crabgrass [23, 34]: 0 | Plant response rating, Crabgrass [23, 30]: 0 | Plant response rating, Corn (corn (Zea mays) [24]; [29]): 0 | Plant response rating, Corn (corn (Zea mays) [24]; [34]): 0 | Plant response rating, Corn (corn (Zea mays) [24]; [30]): 0
